Data on one molecule can be found in patent US10086039B2, “Lamin A, an activator of longevity/anti-aging SIRT1 protein” (THE UNIVERSITY OF HONG KONG, priority 2012, dated 2018).

One experiment relates to Zmpste24−/− MEFs. Briefly: SA-β-galactosidase senescence assay in MEFs. It is filed as cell-based, mouse. To be noted: resveratrol-treated vs saline-treated. The procedure:
SA-β-galactosidase assay was performed using a Cellular Senescence Assay Kit (Chemicon International, CA, USA), following the manufacturer's instructions. For MEFs, resveratrol was supplemented in the complete medium at passage 4 and SA-β-galactosidase assay was performed at passage 6. To quantify SA-β-galactosidase staining, the blue-dyed precipitate was extracted with 100 μl DMSO and the absorbance at 415 nm was recorded.

For the next experiment, the system named is Zmpste24−/− BMSCs. Briefly: BMSC colony-forming assay in vitro. The class given is cell-based, mouse. The text has this:
Bone marrow stromal cells were isolated and cultured according to modified protocol (Enumeration and Expansion of Mouse Mesenchymal Progenitor Cells Using MESENCUILT®, Stemcell Technologies, Canada). Briefly, bone marrow cells were flushed out from femurs and tibias with α-MEM (Invitrogen, Carlsbad, Calif., USA) supplemented with 20% FBS, and plated in petri dishes. Non-adherent cells were removed on day 3 and medium was replaced every 3 days. BMSC colonies were fixed with methanol and stained with crystal violet solution on the indicated day. For magnetic enrichment, CD11b-positive population was removed using a MIDIMACS™ magnetic cell sorting kit (Miltenyi Biotec, Bergisch Gladbach, Germany), following the manufacturer's instructions. Colonies containing more than 50 cells were counted. BMSC colony forming efficiency was calculated as number of colonies formed by […] bone marrow nucleated cells.

In the next experiment the test system is Gadd45α and catalase. Briefly: Gadd45α and catalase expression in Zmpste24−/− BMSCs (Western blotting). It is filed as cell-based, mouse. As to the method: (FIG. 4A) Resveratrol (10 μM) increased colony-forming capacity of Zmpste24^−/− BMSCs. Colony-forming assay was performed on freshly isolated bone marrow cells in 10 cm dishes in the presence and absence of resveratrol. (FIG. 4B) Colony number counting. […] Data represent mean±SEM, n=4. *P<0.05, RSV Vs Vehicle. (FIG. 4C) Left, level of prelamin A pull down by anti SIRT1 immunoprecipitates in BMSCs treated or untreated with resveratrol (2 μM) was determined by Immunoblotting; right, level of acetylated Foxo3a in resveratrol was assessed by Immunoblotting. (FIG. 4D) Levels of catalase and Gadd45α in SIRT1 or scramble siRNA treated Zmpste24^−/− BMSCs in the presence or absence of resveratrol (10 μM) determined by Western blotting. […] (FIG. 4F) Quantification of (FIG. 4E). […] (FIG. 4gG Levels of H3K9ac and IR-induced-H2AX with or without ectopic SIRT1 in wild-type and Zmpste24 null BMSCs were assessed by Western blotting. (FIG. 4H) Ectopic SIRT1 increased the colony-forming capacity of Zmpste24^−/− and wild-type BMSCs. Colony-forming assay was performed on freshly isolated cells in 6 cm dishes. (FIG. 4I) Quantification of (FIG. 4H). Data represent mean±SEM, n=5. *P<0.05, SIRT1 Vs Mock.
Western blotting was performed as described previously (Liu et al., 2005). Relative band intensity was measured by IMAGE J® and normalized to corresponding wild-type or untreated controls as indicated.

The subject of the next experiment is Zmpste24−/− mice. Briefly: HSC population in bone marrow of treated Zmpste24−/− mice (FACS). It is filed as in vivo, mouse. The conditions noted are these: resveratrol 20 μg/ml in drinking water. As to the method:
Zmpste24^-/- mice have been described previously ([…] et al., 2002). Mouse experimentation was performed in accordance with the guidelines of the Committee on the Use of Live Animals in Teaching and Research (CULATR) at the University of Hong Kong. New-born Zmpste24^-/- mice and wild-type controls were fed with resveratrol (20 μg/ml) or N-acetyl Cysteine (1 mg/ml) in drinking water. The survival of resveratrol-treated, NAC-treated, or vehicle-treated Zmpste24^-/- mice was recorded and their body weight was monitored weekly. The trabecular bone organization and bone mineral density were determined by micro-CT. The survival rate was analyzed by Kaplan-Meier method and statistical comparison was performed by Log-rank (Mantel-Cox) Test. To analyze hematopoietic stem cells, mononucleated cells were collected by flushing femurs and tibias with staining medium (HBSS supplemented with 2% FBS) and stained with biotin-coupled lineage markers, Biotin-Flt3, PE-Sca-1, APC-c-Kit, and then SAv-PerCP. FACS profile analyses were performed using a BD FACSCalibur.

In the next experiment the test system is AMPK. Briefly: AMPK activation at low doses of resveratrol. The conditions noted are these: low doses (2-10 μM). The class given is cell-based. The procedure: It was shown that low doses of resveratrol (≤25 μM) activates AMPK in a SIRT1-dependent manner, while high doses (≥50 μM) activate AMPK independent of SIRT1 (Baur et al., 2006; Price et al., 2012; Sun et al., 2007). In the present invention, low doses (2-10 μM) of resveratrol were used and activation of AMPK was not observed; therefore, it is postulated that the beneficial effects of resveratrol on BMSCs are primarily attributable to the activation of SIRT1.

Setting [1] is: Zmpste24−/− BMSCs with SIRT1 knocked down.

For `Oc1ccc(C=Cc2cc(O)cc(O)c2)cc1` [resveratrol], the “β-galactosidase activity (senescence)” value in the experiment on Zmpste24−/− MEFs was “no obvious difference”. In addition, in the experiment on Zmpste24−/− BMSCs (setting [1]), the “rescue effect on colony-forming capacity” value is “attenuated”. For the same molecule, in the experiment on Zmpste24−/− BMSCs (Zmpste24−/− BMSCs, 2 μM and 10 μM, dose-dependent), the colony-forming capacity result is “enhanced the colony-forming capacity”. Besides, in the experiment with Gadd45α and catalase (setting [1]), the “stimulating effect on expression of Gadd45α and catalase” value is recorded as “abolished the stimulating effect”. The “expression of Gadd45α and catalase” value in the experiment with Gadd45α and catalase (Zmpste24−/− BMSCs, resveratrol 10 μM) is given as “increased”. In addition, the “early decline in HSCs” value in the experiment on Zmpste24−/− mice is listed as “rescued”. Besides, the “activation of AMPK” value in the experiment on AMPK is “not observed”.
